ChEMBL document CHEMBL1933055, “Discovery of bacterial NAD⁺-dependent DNA ligase inhibitors: improvements in clearance of adenosine series” (Bioorg Med Chem Lett, 2012)
In brackets after ≈: the same amount, converted by molar mass.

How the values were obtained:
Streptococcus pneumoniae [1] = assay: Antimicrobial activity against Streptococcus pneumoniae D39; assay type: functional
[2] = Plasma clearance in rat at 3 mg/kg, iv; assay type: ADME, organism-based; parameters: dose 3 mg/kg, route intravenous
[3] = Lipophilicity, log D of the compound; settings: octanol/water
Canis familiaris = assay: Hepatic blood flow in iv dosed dog; assay type: ADME, organism-based, Canis lupus familiaris, Liver; settings: in vivo
[4] = Clearance in iv dosed dog; assay type: ADME, organism-based, Canis lupus familiaris; settings: in vivo
[5] = Renal clearance in iv dosed rat; assay type: ADME, organism-based, Kidney; settings: in vivo
Streptococcus pneumoniae [6] = assay: Antibacterial activity against Streptococcus pneumoniae; assay type: functional
Rattus norvegicus = assay: Hepatic blood flow in iv dosed rat; assay type: ADME, organism-based, Liver; settings: in vivo
[7] = Oral bioavailability in rat; assay type: ADME, organism-based; settings: in vivo
[8] = Total clearance in iv dosed rat; assay type: ADME, organism-based; settings: in vivo
[9] = Fraction unbound in human plasma; assay type: ADME, cell-free
[10] = Solubility of the compound; assay type: physicochemical
[11] = Oral bioavailability in dog; assay type: ADME, organism-based, Canis lupus familiaris; settings: in vivo

Row | MIC (Streptococcus pneumoniae [1]) | clearance [2] | logD [3] | CL renal [5] | MIC (Streptococcus pneumoniae [6]) | clearance [8] | SMILES | other results
1 | 2 µg/mL (≈ 5.96 µM) | 43 mL/min/kg | – | – | – | – | C[C@H]1O[C@@H](n2cnc3c(N)nc(OC4CCCC4)nc32)[C@H](O)[C@@H]1O | –
2 | – | – | 2.2 | 2 mL/min/kg | 2 µg/mL (≈ 4.79 µM) | 27 mL/min/kg | C[C@H]1O[C@@H](n2cnc3c(N)nc(O[C@H]4CC[C@H](C(F)(F)F)CC4)nc32)[C@H](O)[C@@H]1O | QH (Canis familiaris): 20%; clearance [4]: 7.7 mL/min/kg; QH (Rattus norvegicus): 39%; bioavailability [7]: 86%; fraction unbound [9]: 0.2; solubility [10]: 800 µM (≈ 334 µg/mL); bioavailability [11]: 88%
3 | 2 µg/mL (≈ 5.66 µM) | 73 mL/min/kg | – | – | – | – | Nc1nc(OCC2CCC2)nc2c1ncn2[C@@H]1O[C@H](CF)[C@@H](O)[C@H]1O | –
4 | 4 µg/mL (≈ 11.3 µM) | 83 mL/min/kg | – | – | – | – | Nc1nc(OC2CCCC2)nc2c1ncn2[C@@H]1O[C@H](CF)[C@@H](O)[C@H]1O | –
5 | – | – | 1.7 | 8 mL/min/kg | 16 µg/mL (≈ 40.1 µM) | 58 mL/min/kg | C[C@H]1O[C@@H](n2cnc3c(N)nc(OCC4CCC(F)(F)CC4)nc32)[C@H](O)[C@@H]1O | –
6 | 2 µg/mL (≈ 5.76 µM) | 50 mL/min/kg | – | – | – | – | C[C@H]1O[C@@H](n2cnc3c(N)nc(OC4C[C@@H]5C[C@@H]5C4)nc32)[C@H](O)[C@@H]1O (some centres not stated) | –
7 | – | – | – | 15 mL/min/kg | 8 µg/mL (≈ 20.8 µM) | 33 mL/min/kg | C[C@H]1O[C@@H](n2cnc3c(N)nc(OC4CCC(F)(F)CC4)nc32)[C@H](O)[C@@H]1O | –
8 | – | – | 1.4 | 17 mL/min/kg | 4 µg/mL (≈ 9.82 µM) | 85 mL/min/kg | C[C@H]1O[C@@H](n2cnc3c(N)nc(OCC4CC(F)(F)C4(F)F)nc32)[C@H](O)[C@@H]1O (some centres not stated) | –
9 | 1 µg/mL (≈ 2.75 µM) | 89 mL/min/kg | – | – | – | – | C[C@H]1O[C@@H](n2cnc3c(N)nc(O[C@H]4CC[C@H](C)CC4)nc32)[C@H](O)[C@@H]1O | –
10 | – | – | -0.06 | 13 mL/min/kg | 16 µg/mL (≈ 47.4 µM) | 67 mL/min/kg | C[C@H]1O[C@@H](n2cnc3c(N)nc(OC4CCOC4)nc32)[C@H](O)[C@@H]1O (some centres not stated) | –
11 | 1 µg/mL (≈ 2.88 µM) | 96 mL/min/kg | – | – | – | – | C[C@H]1O[C@@H](n2cnc3c(N)nc(OCC4CC45CC5)nc32)[C@H](O)[C@@H]1O (some centres not stated) | –
12 | – | – | – | 11 mL/min/kg | 4 µg/mL (≈ 11.3 µM) | 115 mL/min/kg | CC1CC1COc1nc(N)c2ncn([C@@H]3O[C@H](CF)[C@@H](O)[C@H]3O)c2n1 (some centres not stated) | –
13 | – | – | 1.8 | 5 mL/min/kg | 8 µg/mL (≈ 20.5 µM) | 73 mL/min/kg | C[C@H]1O[C@@H](n2cnc3c(N)nc(OC(C4CC4)C(F)(F)F)nc32)[C@H](O)[C@@H]1O (some centres not stated) | –
14 | – | – | 1.3 | 16 mL/min/kg | 16 µg/mL (≈ 40.7 µM) | 23 mL/min/kg | C[C@H]1O[C@@H](n2cnc3c(N)nc(OC4CC(F)(F)C4(F)F)nc32)[C@H](O)[C@@H]1O (some centres not stated) | –
15 | – | – | – | 13 mL/min/kg | 8 µg/mL (≈ 23.6 µM) | 49 mL/min/kg | Nc1nc(OCC2CC2)nc2c1ncn2[C@@H]1O[C@H](CF)[C@@H](O)[C@H]1O | –
